Laboratory results published in ChEMBL document CHEMBL1125587, “Synthesis and antiviral and cytostatic properties of 3'-deoxy-3'-fluoro- and 2'-azido-3'-fluoro-2',3'-dideoxy-D-ribofuranosides of natural heterocyclic bases” (J Med Chem, 1991).
≈ marks a conversion by molar mass, not a printed value.

Legend:
HeLa [1] = experiment: Concentration (MIC), which is required to reduce virus-induced cytopathogenicity in HeLa cells against Polio virus type-1; format: functional; conditions: Homo sapiens
HeLa [2] = experiment: Concentration (MCC) required to cause a microscopically detectable alteration of normal cell morphology, in HeLa cells; format: functional; conditions: Homo sapiens
[3] = Concentration (MIC)required to reduce virus-induced cytopathogenicity in Primary rabbit kidney (PRK ) cells against HSV-2 with strain G; format: functional; conditions: Oryctolagus cuniculus
[4] = Concentration (MIC), required to reduce virus-induced cytopathogenicity in Primary rabbit kidney (PRK ) cells against Vesicular stomatitis virus type 1; format: functional; conditions: Oryctolagus cuniculus
[5] = Concentration (MIC), required to reduce virus-induced cytopathogenicity in Primary rabbit kidney (PRK ) cells against Vesicular stomatitis virus type 2; format: functional; conditions: Oryctolagus cuniculus
[6] = Concentration (MIC), which is required to reduce virus-induced cytopathogenicity in Primary rabbit kidney (PRK ) cells against Vaccinia virus; format: functional; conditions: Oryctolagus cuniculus
[7] = Concentration (MIC)required to reduce virus-induced cytopathogenicity in Primary rabbit kidney (PRK ) cells against HSV-1 with a strain KOS; format: functional; conditions: Oryctolagus cuniculus
[8] = Concentration (MCC) required to cause a microscopically detectable alteration of normal cell morphology, in Primary rabbit kidney (PRK) cells; format: functional, Oryctolagus cuniculus
Vero [9] = experiment: Concentration (MCC) required to cause a microscopically detectable alteration of normal cell morphology, African green monkey kidney (Vero B) cells; format: functional; conditions: Chlorocebus sabaeus
Vero [10] = experiment: Concentration (MIC), which is required to reduce virus-induced cytopathogenicity in African green monkey kidney (Vero B) cells against Coxsackie virus-B4; format: functional, Chlorocebus sabaeus
Vero [11] = experiment: Concentration (MIC), which is required to reduce virus-induced cytopathogenicity in African green monkey kidney (Vero B) cells against Reo-virus-1; format: functional; conditions: Chlorocebus sabaeus
Vero [12] = experiment: Concentration (MIC), which is required to reduce virus-induced cytopathogenicity in African green monkey kidney (Vero B) cells against forest virus; format: functional; conditions: Chlorocebus sabaeus
Vero [13] = experiment: Concentration (MIC), which is required to reduce virus-induced cytopathogenicity in African green monkey kidney (Vero B) cells against Sindbis virus; format: functional; conditions: Chlorocebus sabaeus
Vero [14] = experiment: Concentration (MIC), which is required to reduce virus-induced cytopathogenicity in HeLa cells of African green monkey kidney (Vero B) cells against RNA viruses including para-influenza virus-3; format: functional; conditions: Chlorocebus sabaeus
Vero [15] = experiment: Concentration (MIC), which is required to reduce virus-induced cytopathogenicity in African green monkey kidney (Vero B) cells against para-influenza virus-3; format: functional; conditions: Chlorocebus sabaeus
[16] = Concentration (MIC)required to reduce virus-induced cytopathogenicity in Primary rabbit kidney (PRK ) cells against HSV-2 with a strain G; format: functional; conditions: Oryctolagus cuniculus
HeLa [17] = experiment: Concentration (MIC), which is required to reduce virus-induced cytopathogenicity in HeLa cells o against Polio virus type-1; format: functional; conditions: Homo sapiens
MT4 = experiment: Concentration required to reduce the viability of Human T-lymphoblast MT-4 cells; format: functional, cell-based
MOLT-4F = experiment: Concentration required to reduce the viability of Human T-lymphoblast Molt/4F cells; format: functional, cell-based
Raji = experiment: Concentration required to reduce the viability of Human B-lymphoblast Raji cells; format: functional, cell-based
L1210 = experiment: Concentration required to reduce the viability of Murine leukemia L1210 cells; format: functional, cell-based; conditions: Mus musculus
[18] = Concentration (MIC), required to reduce virus-induced cytopathogenicity in HeLa cells of Primary rabbit kidney (PRK ) cells against Vesicular stomatitis virus type 2; format: functional; conditions: Oryctolagus cuniculus
[19] = Concentration (MIC), which is required to reduce virus-induced cytopathogenicity in HeLa cells of Primary rabbit kidney (PRK ) cells against DNA viruses including Vaccinia virus; format: functional; conditions: Oryctolagus cuniculus
Vero [20] = experiment: Concentration (MIC), which is required to reduce virus-induced cytopathogenicity in African green monkey kidney (Vero B) cells against RNA viruses including Coxsackie virus-B4; format: functional; conditions: Chlorocebus sabaeus
HeLa [21] = experiment: Concentration (MIC), which is required to reduce virus-induced cytopathogenicity in Primary rabbit kidney (PRK ) cells against Polio virus type-1; format: functional; conditions: Homo sapiens
[22] = Concentration (MIC)required to reduce virus-induced cytopathogenicity in Primary rabbit kidney (PRK ) cells against including HSV-2 with a strain G; format: functional; conditions: Oryctolagus cuniculus
[23] = Concentration (MIC), required to reduce virus-induced cytopathogenicity in HeLa cells of Primary rabbit kidney (PRK ) cells against Vesicular stomatitis virus type 1; format: functional; conditions: Oryctolagus cuniculus
[24] = Chlorocebus sabaeus, read-out: MIC

Row | Structure (SMILES) | MIC (HeLa [1]) [µg/mL] | MCC (HeLa [2]) [µg/mL] | MIC [4] [µg/mL] | MIC [5] [µg/mL] | MIC [6] [µg/mL] | MIC [7] [µg/mL] | MCC [8] [µg/mL] | MCC (Vero [9]) [µg/mL] | MIC (Vero [10]; [24]) [µg/mL] | MIC (Vero [11]) [µg/mL] | MIC (Vero [12]) [µg/mL] | MIC (Vero [13]) [µg/mL] | MIC (Vero [15]) [µg/mL] | MIC [16] [µg/mL] | IC50 (MT4) [µg/mL] | IC50 (MOLT-4F) [µg/mL] | IC50 (Raji) [µg/mL] | IC50 (L1210) [µg/mL] | other results
1 | Cc1cn([C@H]2O[C@H](CO)[C@@H](F)[C@H]2N=[N+]=[N-])c(=O)[nH]c1=O | > 400 | > 400 | < 400 | > 400 | > 400 | > 400 | >400 | > 400 | > 400 | > 400 | > 400 | > 400 |  |  |  |  |  |  | MIC [3]: > 400 µg/mL; MIC (Vero [14]): > 400 µg/mL
2 | Cc1cn([C@@H]2O[C@H](CO)[C@@H](F)[C@H]2N=[N+]=[N-])c(=O)[nH]c1=O | > 400 | > 400 | > 400 | > 400 | > 400 | > 400 | >400 | > 400 | > 400 | > 400 | > 400 | > 400 | > 400 | > 400 |  |  |  |  | 
3 | Nc1ccn([C@@H]2O[C@H](CO)[C@H](F)[C@H]2O)c(=O)n1 |  | > 400 | > 400 |  | > 400 | > 400 | >400 | > 400 | 150 (≈ 612 µM) | 150 (≈ 612 µM) | > 400 | 300 (≈ 1220 µM) | > 400 | > 400 | 7.9 (≈ 32.2 µM) | 65 (≈ 265 µM) | 98 (≈ 400 µM) | 39 (≈ 159 µM) | MIC (HeLa [17]): 150 µg/mL (≈ 612 µM); MIC [18]: 300 µg/mL (≈ 1220 µM); MIC (Vero [10]): 300 µg/mL (≈ 1220 µM)
4 | O=c1ccn([C@@H]2O[C@H](CO)[C@@H](F)[C@H]2O)c(=O)[nH]1 | 150 (≈ 609 µM) | > 400 | > 400 | > 400 |  | > 400 | >400 | > 400 | 300 (≈ 1220 µM) | 150 (≈ 609 µM) | > 400 | 300 (≈ 1220 µM) | > 400 | > 400 | 6.9 (≈ 28 µM) | > 100 | > 100 | > 100 | MIC [19]: > 400 µg/mL; MIC (Vero [20]): 300 µg/mL (≈ 1220 µM)
5 | [N-]=[N+]=NC1C(F)C(CO)OC1n1ccc(N)nc1=O (centres undefined) | > 400 | > 400 | > 300 | > 400 | > 400 | > 400 | >400 | > 400 | > 400 | > 400 | > 400 | > 400 | > 400 | > 400 |  |  |  |  | 
6 | Nc1nc(O)c2ncn([C@@H]3O[C@H](CO)[C@@H](F)[C@H]3O)c2n1 |  | > 400 | > 200 | > 200 | 10 (≈ 35.1 µM) | > 100 | 200 | 400 |  | > 200 | 40 (≈ 140 µM) | 40 (≈ 140 µM) | > 100 | > 100 | > 100 | 75 (≈ 263 µM) | 29 (≈ 102 µM) | 5 (≈ 17.5 µM) | MIC (HeLa [21]): 150 µg/mL (≈ 526 µM)
7 | [N-]=[N+]=NC1C(F)C(CO)OC1n1cnc2c(N)ncnc21 (centres undefined) | > 200 | > 400 |  | > 200 | 300 (≈ 1020 µM) | > 400 | >400 | > 400 | 300 (≈ 1020 µM) | > 200 | > 200 | > 200 | > 200 |  |  |  |  |  | MIC [22]: > 200 µg/mL; MIC [23]: 300 µg/mL (≈ 1020 µM); MIC (Vero [10]): >200 µg/mL
8 | Nc1ncnc2c1ncn2[C@@H]1O[C@H](CO)[C@@H](F)[C@H]1O | 4 (≈ 14.9 µM) | 40 |  | > 10 | 2 (≈ 7.43 µM) | > 10 | >40 | 40 |  | 1 (≈ 3.71 µM) | 4 (≈ 14.9 µM) | 4 (≈ 14.9 µM) | > 4 | > 10 | 0.22 (≈ 0.817 µM) | 28 (≈ 104 µM) | 3.9 (≈ 14.5 µM) | 1.6 (≈ 5.94 µM) | MIC [23]: > 40 µg/mL
